Measured values published in patent publication US20240360148A1 (SUVALENT THERAPEUTICS, INC., priority 2021, published 2024).

How the values were obtained:
[1] = system: sumoylation levels (SUMO 2/3 conjugates) in HCT-116 cells; test: HCT-116 4 Hour Cell Assay (Western, SUMO 2/3 conjugates); format: cell-based; details: Homo sapiens, HCT-116, 4 h, 4 h treatment, Anti-Sumo 2-3 immunoblot, read-out: HCT-116 Western 4 h IC50 (μM) Ave
Description: This protocol describes the procedures used to assess the effects of compounds of interest on sumoylation levels. Immunoblot of SUMO 2/3 conjugates are performed and IC50 curves are generated upon quantification of sumoylations bands. HCT-116 cells are seeded in a 12 well plate (500,000 cells/well). The following day the cells are treated with compounds of interest (resuspended in DMSO) for 4 hours (11 concentrations with a three-fold dilution; starting concentration 25 μM) Following 4 hours of incubation the cells are washed with ice cold PBS 1×and protein extraction is performed with RIPA buffer supplemented with phosphatases and proteases inhibitors, 25 mM of NEM and 50 units/mL of Benzonase. Samples undergo centrifugation at 13,000 RPM, 4° C., for 10 minutes and the supernatant is collected. Protein quantification is performed using BCA. Non-Reducing Laemmli Buffer is added to the samples. Samples are heated at 75° C. for 10 minutes, and are centrifuged for 3 minutes at 9000 RPM Nupage 4-12% Bis Tris gels and 1× MOPS buffer (Fisher Scientific)+1× NuPAGE Antioxidant (Invitrogen) are used to perform the SDS-PAGE gel electrophoresis (20 to 40 μg of proteins are loaded in the gels). Proteins are then transferred to PVDF membranes and the level of total proteins are measured by staining with Revert Total Protein Stain and the fluorescent bands are acquired using the LI-COR FC (700 nm for 1 min) Membranes are blocked for 5 minutes with Bio-Rad Blocking Buffer and are subsequently incubated over night at 4° C. with Anti-Sumo 2-3 mAb (M BL #M114-3, 1:1000 in Bio-Rad Blocking Buffer, 0.2% Tween 20) Membranes are washed with 1×TBS-T (3 times for 5 minutes) and sumoylation is detected using Li-cor IRDye 800CW Goat anti-Mouse IgG secondary antibody (1:10,000 dilution) upon 1 hour of incubation in blocking buffer with 0.2% Tween 20 and 0.01% SDS. After the incubation, the membranes are washed with 1×TBS-T (3 times for 5 minutes). To visualize the fluorescent bands the membranes are scanned with LI-COR FC (700 nm for 1 min and […] for 2 mins). Sumoylation levels are quantified upon normalization with total protein levels, using the LI-COR Image Studio Lite 5.2 Software.

SAE1 = SAE1 (Homo sapiens (Human), UniProt Q9UBE0+Q9UBT2); test: SAE High Throughput Biochemical Assay (HTRF), 15 min preincubation; details: read-out: 15 min preincubation HTRF IC50 (μM) Ave, SAE1 12.5 nM, ATP 100 μM
Procedure, shortened: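 HTRF detection of SUMO transfer from SUMO-GST to UBC9-His (40 nM each) by SAE1 at 12.5 nM used 100 μM ATP in pH 7.5 HEPES buffer with 10 mM MgCl2 and 0.1% BSA. Enzyme and compound were preincubated 15 min at RT and the reaction ran 45 min, with readings after 2 h and overnight.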

Chain of SAE1 (Q9UBE0 whole entry): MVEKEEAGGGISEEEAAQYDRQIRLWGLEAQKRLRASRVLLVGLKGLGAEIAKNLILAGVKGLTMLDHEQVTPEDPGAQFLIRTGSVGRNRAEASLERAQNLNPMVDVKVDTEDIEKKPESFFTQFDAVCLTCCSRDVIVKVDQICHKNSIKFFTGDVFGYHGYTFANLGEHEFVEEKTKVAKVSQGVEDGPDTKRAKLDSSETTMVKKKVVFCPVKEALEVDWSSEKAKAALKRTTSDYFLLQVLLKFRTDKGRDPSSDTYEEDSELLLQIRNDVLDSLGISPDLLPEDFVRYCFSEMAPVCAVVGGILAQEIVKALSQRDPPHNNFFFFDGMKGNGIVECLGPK
Chain of SAE1 (Q9UBT2 whole entry): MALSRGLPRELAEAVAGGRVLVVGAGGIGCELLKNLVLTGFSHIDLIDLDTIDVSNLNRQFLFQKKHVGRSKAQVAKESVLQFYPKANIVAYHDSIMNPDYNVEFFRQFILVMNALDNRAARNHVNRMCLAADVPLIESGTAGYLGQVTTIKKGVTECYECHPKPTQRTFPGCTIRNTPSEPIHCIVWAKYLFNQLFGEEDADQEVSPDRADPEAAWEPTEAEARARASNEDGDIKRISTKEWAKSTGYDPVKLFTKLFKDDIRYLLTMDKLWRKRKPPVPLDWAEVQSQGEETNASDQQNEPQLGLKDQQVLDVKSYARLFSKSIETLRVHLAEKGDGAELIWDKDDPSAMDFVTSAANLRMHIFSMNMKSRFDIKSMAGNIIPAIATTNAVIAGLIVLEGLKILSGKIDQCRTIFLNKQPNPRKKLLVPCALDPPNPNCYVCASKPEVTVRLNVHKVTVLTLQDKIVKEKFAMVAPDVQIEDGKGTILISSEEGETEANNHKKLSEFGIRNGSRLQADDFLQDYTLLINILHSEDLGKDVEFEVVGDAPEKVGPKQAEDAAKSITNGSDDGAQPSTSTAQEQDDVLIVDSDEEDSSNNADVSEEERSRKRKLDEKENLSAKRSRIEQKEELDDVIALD

IC50 [1] [µM]	Compound	IC50 (SAE1) [µM]
0.692	CCn1cc(-c2ccccc2[C@@H]2CN(C(=O)/C=C/CF)Cc3sc(C#N)cc32)c(C(F)(F)F)n1 [Example 20, (S, E)-4-(2-(1-ethyl-3-(trifluoromethyl)-1 H-pyrazol-4-yl)phenyl)-6-(4-fluorobut-2-enoyl)-4,5,6,7-tetrahydrothieno[2,3-c]pyridine-2-carbonitrile]	0.69
0.919	CCn1cc(-c2c(F)cccc2[C@@H]2CN(C(=O)/C=C/C3CC(F)(F)CN3)Cc3sc(C#N)cc32)c(C(F)(F)F)n1 (stereo partly drawn) [Example 253, (S)-6-((E)-3-((S)-4,4-difluoropyrrolidin-2-yl)acryloyl)-4-((S)-2-(1-ethyl-3-(trifluoromethyl)-1 H-pyrazol-4-yl)-3-fluorophenyl)-4,5,6,7-tetrahydrothieno[2,3-c]pyridine-2-carbonitrile 2,2,2-trifluoroacetate]	2.92
2.13	CCn1cc(-c2c(Cl)cc(F)cc2C2CN(C(=O)/C=C/CN(C)C)Cc3sc(C#N)cc32)c(C(F)(F)F)n1 (centres unmarked) [Example 186, (E)-4-(3-Chloro-2-(1-ethyl-3-(trifluoromethyl)-1 H-pyrazol-4-yl)-5-fluorophenyl)-6-(4-(dimethylamino)but-2-enoyl)-4,5,6,7-tetrahydrothieno[2,3-c]pyridine-2-carbonitrile]	6.37
0.57	CCn1cc(-c2c(F)cccc2[C@@H]2CN(C(=O)/C=C/[C@H]3CCN3)Cc3sc(C#N)cc32)c(C(F)(F)F)n1 [Example 54, (S)-6-((E)-3-((R)-azetidin-2-yl)acryloyl)-4-((S)-2-(1-ethyl-3-(trifluoromethyl)-1 H-pyrazol-4-yl)-3-fluorophenyl)-4,5,6,7-tetrahydrothieno[2,3-c]pyridine-2-carbonitrile]	0.55
1.97	CCn1cc(-c2ccccc2[C@@H]2CN(C(=O)/C=C/CNC(C)(C)CO)Cc3sc(C#N)cc32)c(C(F)(F)F)n1 [Compound 244]	2.88
0.844	CCn1cc(-c2c(F)cc(F)cc2[C@@H]2CN(C(=O)/C=C/CN(C)C)Cc3sc(C#N)cc32)c(C(F)(F)F)n1 [Compound 238]	1.79
2.59	C=C(C(=O)N1Cc2sc(C#N)cc2[C@H](c2ccccc2-c2cn(CC)nc2C(F)(F)F)C1)C(F)(F)F [Example 60, (S)-4-(2-(1-Ethyl-3-(trifluoromethyl)-1 H pyrazol-4-yl)phenyl)-6-(2-(trifluoromethyl)acryloyl)-4,5,6,7-tetrahydrothieno[2,3-c]pyridine-2-carbonitrile]	1.36
0.263	CN(C)C/C=C/C(=O)N1Cc2sc(C#N)cc2[C@H](c2cccc(F)c2-c2cn(C)nc2C(F)(F)F)C1 [Example 250, (S)-6-((E)-4-(dimethylamino)but-2-enoyl)-4-((S)-3-fluoro-2-(1-methyl-3-(trifluoromethyl)-1 H-pyrazol-4-yl)phenyl)-4,5,6,7-tetrahydrothieno[2,3-c]pyridine-2-carbonitrile]	0.76
0.191	CCn1cc(-c2c(F)cccc2[C@@H]2CN(C(=O)/C=C/[C@@H]3CCN3)Cc3sc(C#N)cc32)c(C(F)(F)F)n1 [Example 53, (S)-6-((E)-3-((S)-azetidin-2-yl)acryloyl)-4-((S)-2-(1-ethyl-3-(trifluoromethyl)-1 H-pyrazol-4-yl)-3-fluorophenyl)-4,5,6,7-tetrahydrothieno[2,3-c]pyridine-2-carbonitrile]	0.34
0.746	CCn1cc(-c2ccccc2[C@@H]2CN(C(=O)/C=C/CN3CCCC3)Cc3sc(C#N)cc32)c(C(F)(F)F)n1 [Example 30, (S, E)-4-(2-(1-ethyl-3-(trifluoromethyl)-1 H-pyrazol-4-yl)phenyl)-6-(4-(pyrrolidin-1-yl)but-2-enoyl)-4,5,6,7-tetrahydrothieno[2,3-c]pyridine-2-carbonitrile]	3.3
0.283	CCn1cc(-c2c(F)cccc2[C@@H]2CN(C(=O)/C=C/CNC(C)C)Cc3sc(C#N)cc32)c(C(F)(F)F)n1 [Example 106, (S,E)-4-(2-(1-Ethyl-3-(trifluoromethyl)-1H pyrazol-4-yl)-3-fluorophenyl)-6-(4-(isopropylamino)but-2-enoyl)-4,5,6,7-tetrahydrothieno[2,3-c]pyridine-2-carbonitrile]	0.8
0.12	CCn1cc(-c2ccccc2[C@@H]2CN(C(=O)/C=C/C(F)F)Cc3sc(C#N)cc32)c(C(F)(F)F)n1 [Example 21, (S, E)-6-(4,4-difluorobut-2-enoyl)-4-(2-(1-ethyl-3-(trifluoromethyl)-1H-pyrazol-4-yl)phenyl)-4,5,6,7-tetrahydrothieno[2,3-c]pyridine-2-carbonitrile]	–
–	CCn1cc(-c2ccccc2[C@@H]2CN(C(=O)/C=C/CN(C)C)Cc3sc(C#N)cc32)c(C(C)(F)F)n1 [Example 10, (S, E)-4-(2-(3-(1,1-difluoroethyl)-1-ethyl-1H-pyrazol-4-yl)phenyl)-6-(4-(dimethylamino)but-2-enoyl)-4,5,6,7-tetrahydrothieno[2,3-c]pyridine-2-carbonitrile]	13.4
–	CN(C)C/C=C/C(=O)N1Cc2sc(C#N)cc2[C@H](c2ccccc2-c2cn(-c3ccnc(N)c3)nc2C(F)(F)F)C1 [Example 160, (S, E)-4-(2-(1-(2-Aminopyridin-4-yl)-3-(trifluoromethyl)-1 H-pyrazol-4-yl)phenyl)-6-(4-(dimethylamino)but-2-enoyl)-4,5,6,7-tetrahydrothieno[2,3-c]pyridine-2-carbonitrile]	24.4
–	CCOC(=O)CCCn1cc(-c2ccccc2[C@@H]2CN(C(=O)/C=C/CN(C)C)Cc3sc(C#N)cc32)c(C(F)(F)F)n1 [Example 171]	12
–	CN(C)C/C=C/C(=O)N1Cc2sc(C#N)cc2[C@H](c2ccccc2-c2cn(CCc3ccncc3)nc2C(F)(F)F)C1 [Example 177, (S,E)-6-(4-(Dimethylamino)but-2-enoyl)-4-(2-(1-(2-(pyridin-4-yl)ethyl)-3-(trifluoromethyl)-1H pyrazol-4-yl)phenyl)-4,5,6,7-tetrahydrothieno[2,3-c]pyridine-2-carbonitrile]	6.3
–	CCn1cc(-c2c(C3CN(C(=O)/C=C/CN(C)C)Cc4sc(C#N)cc43)ccc(F)c2F)c(C(F)(F)F)n1 (centres unmarked) [Example 184, (E)-6-(4-(Dimethylamino)but-2-enoyl)-4-(2-(1-ethyl-3-(trifluoromethyl)-1 H-pyrazol-4-yl)-3,4-difluorophenyl)-4,5,6,7-tetrahydrothieno[2,3-c]pyridine-2-carbonitrile]	8.37
–	CCn1cc(-c2cc(NC(C)=O)ccc2C2CN(C(=O)/C=C/CN(C)C)Cc3sc(C#N)cc32)c(C(F)(F)F)n1 (centres unmarked) [Example 197, (E)-N-(4-(2-Cyano-6-(4-(dimethylamino)but-2-enoyl)-4,5,6,7-tetrahydrothieno[2,3-c]pyridin-4-yl)-3-(1-ethyl-3-(trifluoromethyl)-1 H-pyrazol-4-yl)phenyl)acetamide]	15.2
–	CN(C)C/C=C/C(=O)N1Cc2sc(C#N)cc2[C@H](c2ccccc2-c2cn(CC(F)F)nc2C(F)(F)F)C1 [Example 18, (S,E)-4-(2-(1-(2,2-difluoroethyl)-3-(trifluoromethyl)-1 H-pyrazol-4-yl)phenyl)-6-(4-(dimethylamino)but-2-enoyl)-4,5,6,7-tetrahydrothieno[2,3-c]pyridine-2-carbonitrile]	8.99
–	CCn1cc(-c2cc(NC(=O)NC)ccc2C2CN(C(=O)/C=C/CN(C)C)Cc3sc(C#N)cc32)c(C(F)(F)F)n1 (centres unmarked) [Example 195, (E)-1-(4-(2-Cyano-6-(4-(dimethylamino)but-2-enoyl)-4,5,6,7-tetrahydrothieno[2,3-c]pyridin-4-yl)-3-(1-ethyl-3-(trifluoromethyl)-1 H-pyrazol-4-yl)phenyl)-3-methylurea]	11.3
–	CN(C)C/C=C/C(=O)N1Cc2sc(C#N)cc2[C@H](c2ccccc2-c2cn(CCCC(=O)O)nc2C(F)(F)F)C1 [Example 174, (S, E)-4-(4-(2-(2-Cyano-6-(4-(dimethylamino)but-2-enoyl)-4,5,6,7-tetrahydrothieno[2,3-c]pyridin-4-yl)phenyl)-3-(trifluoromethyl)-1H pyrazol-1-yl)butanoic acid]	12.5
